Measurements from patent US8563520B2, “Treatment of ocular disease with inhibitors of alpha2 macroglobulin protein” (McGill University, priority 2005, dated 2013).
“Also recorded” adds a separate entry of the source. Where two headings read alike, the source gives them in different places.

Assays:
[1] = test system: retinal ganglion cells (RGCs); assay: RGC loss in high IOP (cauterization) glaucoma model, retrograde RGC labeling and counting; assay type: in vivo, rat; conditions: for RGC loss (% at day 42 vs normal): 14 days high, 28 normal IOP
Method: Episcleral cauterization of rat eyes was performed under anesthesia.
RGCs were labeled with 3% DII (1,1-dioctadecyl-3,3,3,3-tetramethylindocarbocyanine perchlorate) or with 3% fluorogold. Briefly, Wistar rats were anesthetized and their heads were mounted in a stereotactic apparatus.
7 days after dye injection, the vasculature of the rats were perfused-fixed (transcardiac perfusion in phosphate-buffer (PB), followed by 4% PFA in PB) and the eyes were enucleated. After post-fixing for 1 hour cuts were made through the sclera to form a Maltese cross pattern and retinas detached from the eyecup at the optic nerve head. The retinas were flat-mounted on glass slides (vitreous side up) air-dried and cover-slipped with mounting medium (Molecular Probes). The retinas were observed under fluorescence microscopy (Zeiss). […] RGCs were recognized in flat mounted retinas by the presence of retrogradely transported dye and by morphology. RGCs in all 4 quadrants (16 images per retina) were averaged and presented as […] of area counted.
A puncture was made on the eye wall with a 30 G needle to allow the entrance of a cannula in the […]. A glass cannula (10 μm thickness), prepared with an upright microelectrode puller (Narishige) was connected through plastic tubing to a Hamilton syringe to dispense solutions of anti-α2 macroglobulin rabbit antibody (Calbiochem), control PBS, or control rabbit antibody (Sigma). Injections were done at day 14 and 21 post-surgery (in sham-operated control eyes with normal IOP, and cauterized eyes with high IOP). The intraocular injections were in 2 μl volumes containing a total of 2 μg antibody. This amount was selected because in quantitative western blots of whole rat retina there was an estimated total of ˜1 μg of α2 macroglobulin in glaucomatous eyes (data not shown). Ocular pressure was not affected by intraocular injections, the high IOP eyes remained high IOP and the normal IOP eyes remained normal IOP (data not shown).
A second paradigm was used to confirm the role of α2 macroglobulin in RGC death. Neutralizing antibodies to α2 macroglobulin were injected intraocularly in glaucomatous eyes with high IOP to determine whether RGC death could be prevented. The experimental model was to induce high IOP for 14 days to trigger α2 macroglobulin over-expression and RGC damage, before the initiation of α2 macroglobulin neutralizing therapy. Neutralization was used as single therapy, or was combined with daily betaxolol treatment to better reflect the clinical setting in which glaucoma patients would be simultaneously treated with pressure-lowering drugs. Neutralizing antibodies were given at days 14 and 21 after cauterization, and surviving RGCs, identified by retrograde labeling, were counted at day 42 post-surgery. […]

α2 macroglobulin mRNA = conditions: betaxolol treatment; still significantly increased over normal IOP
Description: Retinas were dissected from eyes treated as indicated (n=3) and mRNAs were purified and studied by Northern blotting with labeled α2 macroclobulin or actin (control) probes.

rat eyes = conditions: for IOP of normal eyes: daily topical betaxolol 0.5% eye drops; for IOP of cauterized (high IOP) eyes: daily topical betaxolol 0.5% eye drops from day 3 post-cauterization
Method: Episcleral cauterization of rat eyes was performed under anesthesia. After a conjunctival incision, extra-ocular muscles were isolated and the major limbal draining veins were identified based on location, relative immobility, larger caliber and branching pattern. Cauterization of three episcleral vessels in the right eye was done with a 30″ cautery tip. The left eye in each animal was used as normal IOP control after sham-surgery (conjunctival incisions with no cauterization).
IOP was gauged using a Tonopen XL tonometer under light anesthesia (intramuscular injection of ketamine, […]; xylazine, 0.32 mg/kg; and acepromazine, 0.4 mg/kg).
A selective β-blocker (betaxolol 0.5%, Alcon) was applied daily as eye drops.

retinal mRNA = conditions: day 28
Method: RNA preparation. Total RNA was isolated from retinal tissue using TRIZOL® (Life Technologies). Three retinas belonging to the same experimental group were pooled for the gene microarray experiment. RNA was then further purified using the RNAEASY® (QIAGEN®). The integrity of the RNA samples was assessed by running aliquots on RNA 6000 Nano LabChip (Agilent) using the 2100 bioanalyzer (Agilent).
Probe synthesis, hybridization and scanning were done according to Affymetrix protocol, as a service at the McGill University and Genome Quebec Innovation Centre. For the experiments shown, Rat U34 Genome Arrays (8,700 genes, Affymetrix) were used. Briefly, RNA samples were first converted to double stranded cDNA (T7-(dT)24 primer (Genset)). Then the cDNAs were purified and used to generate the biotinylated cRNA probes (Bioarray High Yield RNA transcript labeling kit (Enzo diagnostics)). An aliquot of the purified cRNA was analyzed on RNA 6000 Nano LabChip (Agilent) to verify the integrity and size distribution. Immediately after hybridization the chip was placed in the Affymetrix GeneChip Fluidics Station 400 (Affymetrix). In total, 10 low-stringency washes (63 SSPE, 0.01% Tween-20, 0.005% Antifoam) and 4 high-stringency washes (100 mM MES, 0.1 M NaCl, 0.01% Tween-20, 50 C) were performed (all reagents from Sigma). The array was then incubated with SAPE® (streptavidin/phycoerythrin stain, Molecular Probes), followed by 10 low stringency washes. The array was incubated with biotinylated anti-streptavidin antibody (Vector Laboratories) and washed again with 15 low stringency washes. Specifically bound probe was detected by placing the array in the Agilent GeneArray scanner 2500 (Affymetrix). The scanned images were analyzed using the Microarray Analysis Suite version 5.0 (Affymetrix). Statistical analyses were done with the help of the Kensington Discovery Edition version 1.8 (Inforsense).
Retinas were carefully dissected out to insure that only retinal mRNAs were prepared for gene microarray studies. Samples were obtained from sham operated eyes (normal IOP control, Group 1), eyes at 28 days high IOP (test, Group 2), and eyes 28 days after cauterization plus daily betaxolol treatment from day 3 onwards (Group 3). […] Samples from each of these groups (n=4 each group) were studied by gene microarrays (see FIG. 2 flowchart). A cutoff of 2.5-fold was used to afford significance (p<0.05).

CC(C)NCC(O)COc1ccc(CCOCC2CC2)cc1 (stereo not drawn) [betaxolol]
RGC loss (% at day 42 vs normal) ([1]; daily betaxolol days 14-42, no Ab injection): 19±1%
RGC loss (% at day 42 vs normal) ([1]; daily betaxolol days 14-42, no Ab injection, listed as Betaxolol): 19 ± 1%
RGC loss (% at day 42 vs normal) ([1]; daily betaxolol days 14-42 plus control serum days 14 and 21): 21 ± 5%
rate of RGC loss ([1]; daily betaxolol, IOP normalized from day 7 onwards): reduces the rate of RGC loss, but does not prevent it; also recorded: reduced the average rate of RGC loss, but did not prevent it
increase of retinal α2 macroglobulin mRNA at day 28 of high IOP (α2 macroglobulin mRNA): attenuated slightly
IOP of normal eyes (rat eyes): no significant effect on normal IOP
IOP of cauterized (high IOP) eyes (rat eyes): full normalization of IOP after 3 days
IOP of cauterized (high IOP) eyes (rat eyes; listed as Betaxolol): fully normalized high IOP from day 7 onward
IOP of normal eyes (rat eyes; listed as Betaxolol): no significant effect
Relative Change versus non-cauterized eyes, cauterized + betaxolol B (retinal mRNA; gene ATPase alpha-1 subunit (M74494)): 1.5
Relative Change versus non-cauterized eyes, cauterized + betaxolol B (retinal mRNA; gene Amphiphysin 1 (Y13381)): −1.1
Relative Change versus non-cauterized eyes, cauterized + betaxolol B (retinal mRNA; gene Amyloid precursor-like protein 2 (X77934)): 1.1
Relative Change versus non-cauterized eyes, cauterized + betaxolol B (retinal mRNA; gene Asparagine synthase (U07201)): −1.1
Relative Change versus non-cauterized eyes, cauterized + betaxolol B (retinal mRNA; gene B-2 arylamine N-acetyltransferase (U01347)): 1.5
Relative Change versus non-cauterized eyes, cauterized + betaxolol B (retinal mRNA; gene Beta A3/A1 crystallin (X15143)): −1.1
Relative Change versus non-cauterized eyes, cauterized + betaxolol B (retinal mRNA; gene Clone RKIAS43 (AA892520)): 2.9
Relative Change versus non-cauterized eyes, cauterized + betaxolol B (retinal mRNA; gene Crybb2 (X83671)): −1.0
Relative Change versus non-cauterized eyes, cauterized + betaxolol B (retinal mRNA; gene Cyclic nucleotide-gated cation channel (AJ000515)): 3.4
Relative Change versus non-cauterized eyes, cauterized + betaxolol B (retinal mRNA; gene Gial fibrillary acidic protein (AF028784)): 1.4
Relative Change versus non-cauterized eyes, cauterized + betaxolol B (retinal mRNA; gene Gzα (U77483)): 1.1
Relative Change versus non-cauterized eyes, cauterized + betaxolol B (retinal mRNA; gene Helicase RAP 30 (L01267)): 1.2
Relative Change versus non-cauterized eyes, cauterized + betaxolol B (retinal mRNA; gene PSD-95/SAP90-asociated protein-4 (U67140)): −1.0
Relative Change versus non-cauterized eyes, cauterized + betaxolol B (retinal mRNA; gene Protein phosphatase 1 gamma (S78217)): 2.5
Relative Change versus non-cauterized eyes, cauterized + betaxolol B (retinal mRNA; gene RBCK (AB011369)): 1.3
Relative Change versus non-cauterized eyes, cauterized + betaxolol B (retinal mRNA; gene Ras-related p23 (X12535)): 1.1
Relative Change versus non-cauterized eyes, cauterized + betaxolol B (retinal mRNA; gene Reggie1-1 (AF023302)): 1.8
Relative Change versus non-cauterized eyes, cauterized + betaxolol B (retinal mRNA; gene Ribosomal protein L23-related product (U62635)): 3.8
Relative Change versus non-cauterized eyes, cauterized + betaxolol B (retinal mRNA; gene S-adenosylmethionine synthase (J05571)): 1.1
Relative Change versus non-cauterized eyes, cauterized + betaxolol B (retinal mRNA; gene SPARC (U75928)): 1.9
Relative Change versus non-cauterized eyes, cauterized + betaxolol B (retinal mRNA; gene cDNA clone rx00382 (AI639155)): 7.2
Relative Change versus non-cauterized eyes, cauterized + betaxolol B (retinal mRNA; gene cDNA clone rx01295 (AI639375)): 4.8
Relative Change versus non-cauterized eyes, cauterized + betaxolol B (retinal mRNA; gene cDNA clone rx05013 (AI639441)): 2.8
Relative Change versus non-cauterized eyes, cauterized + betaxolol B (retinal mRNA; gene α2 macroglobulin (M23566)): 5.6
